Data taken from ChEMBL document CHEMBL1201862, “PubChem BioAssay data set” (2004).
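Five concentrations, 48 hours, 96-well plates. GI50 marks 50% less growth.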 The source made the active and inactive calls. Rule as the data show it: active = GI50 up to about 1.1 µM and inactive = higher. Where a SMILES comes first, the peptide text is derived from it. The star is where a group is joined. Cbz = O=C(OCc1ccccc1)*

Columns and labels:
Assay in all cases: NCI-60 cell line screen, 48 h
ACHN = test system: ACHN
BT-549 = test system: BT-549
CAKI-1 = test system: CAKI-1
DU-145 = test system: DU-145
EKVX = test system: EKVX
HL-60 = test system: HL-60
HOP-62 = test system: HOP-62
Hs-578T = test system: Hs-578T
M14 = test system: M14
OVCAR-3 = test system: OVCAR-3
OVCAR-8 = test system: OVCAR-8
SF-295 = test system: SF-295
SK-OV-3 = test system: SK-OV-3
SR = test system: SR
UACC-257 = test system: UACC-257
UACC-62 = test system: UACC-62
UO-31 = test system: UO-31
MDA-N = test system: MDA-N
SN12C = test system: SN12C
NCI-H522 = test system: NCI-H522

Structure (SMILES) | GI50 (ACHN) | GI50 (BT-549) | GI50 (CAKI-1) | GI50 (DU-145) | GI50 (EKVX) | GI50 (HL-60) | GI50 (HOP-62) | GI50 (Hs-578T) | GI50 (M14) | GI50 (OVCAR-3) | GI50 (OVCAR-8) | GI50 (SF-295) | GI50 (SK-OV-3) | GI50 (SR) | GI50 (UACC-257) | GI50 (UACC-62) | GI50 (UO-31) | GI50 (MDA-N) | GI50 (SN12C) | GI50 (NCI-H522)
Cn1c(-c2cccc([N+](=O)[O-])c2)[n+](C)c2ccccc21 | 41.6 µM (inactive) | > 100 µM (inactive) | > 100 µM (inactive) | > 100 µM (inactive) | > 100 µM (inactive) | 29.2 µM (inactive) | > 100 µM (inactive) | > 100 µM (inactive) | > 100 µM (inactive) | 30.8 µM (inactive) | 49 µM (inactive) | > 100 µM (inactive) | > 100 µM (inactive) | > 100 µM (inactive) | > 100 µM (inactive) | > 100 µM (inactive) | > 100 µM (inactive) |  |  | 
CCOC(=O)C(NC(=O)NCc1ccc(F)cc1)C(F)(F)F (configuration not stated) | > 100 µM (inactive) | > 100 µM (inactive) |  |  | > 100 µM (inactive) | > 100 µM (inactive) |  | > 100 µM (inactive) | > 100 µM (inactive) |  | > 100 µM (inactive) |  | > 100 µM (inactive) | > 100 µM (inactive) | > 100 µM (inactive) |  | > 100 µM (inactive) | > 100 µM (inactive) | > 100 µM (inactive) | 
CSc1c(C#N)c(O)n(-c2ccc(C)cc2)c(=O)c1C(C)=O |  | > 100 µM (inactive) | > 100 µM (inactive) | > 100 µM (inactive) | > 100 µM (inactive) | > 100 µM (inactive) |  | > 100 µM (inactive) | 94.6 µM (inactive) | > 100 µM (inactive) | > 100 µM (inactive) |  | > 100 µM (inactive) | > 100 µM (inactive) | > 100 µM (inactive) | > 100 µM (inactive) | 88.7 µM (inactive) |  | > 100 µM (inactive) | 57.5 µM (inactive)
C=CC(=O)C#CC#CC/C=C\CCCCCCC | > 20.6 µM (inactive) | > 20.6 µM (inactive) | > 20.6 µM (inactive) | > 20.6 µM (inactive) | > 20.6 µM (inactive) | 9.91 µM (inactive) | > 10.1 µM (inactive) | > 20.6 µM (inactive) | > 14.6 µM (inactive) | > 20.6 µM (inactive) | > 19.8 µM (inactive) | > 20.6 µM (inactive) | > 20.6 µM (inactive) | 5.65 µM (inactive) | > 20.6 µM (inactive) | > 20.6 µM (inactive) | > 20.6 µM (inactive) |  | > 20.6 µM (inactive) | 16 µM (inactive)
COc1ccc(/N=N/C(=N/NC(=O)c2cc(Cl)ccc2C(=O)c2ccccc2)c2ccc(N(CCC#N)CCC#N)cc2C)cc1 | 25.6 µM (inactive) | 29.4 µM (inactive) | 21.3 µM (inactive) | 19.5 µM (inactive) | 16.1 µM (inactive) |  | 20.1 µM (inactive) | 29.9 µM (inactive) | 18.2 µM (inactive) | 5.04 µM (inactive) | 16.1 µM (inactive) | 26.1 µM (inactive) | 24.4 µM (inactive) |  | 27.7 µM (inactive) | 17.2 µM (inactive) | 20.3 µM (inactive) | 21.7 µM (inactive) | 14.6 µM (inactive) | 
COc1cc2c(cc1O)c(O)cc1c3cc(OC)c(OC)cc3c[n+](C)c21 | 56.6 µM (inactive) | 23 µM (inactive) | > 54 µM (inactive) | 7.52 µM (inactive) | > 100 µM (inactive) |  | 34.1 µM (inactive) | 4.23 µM (inactive) | > 100 µM (inactive) | 20.7 µM (inactive) | 8.87 µM (inactive) | 18.7 µM (inactive) | > 100 µM (inactive) |  | 51.8 µM (inactive) | 4.34 µM (inactive) | 53.5 µM (inactive) | 17.7 µM (inactive) | 1.24 µM (inactive) | 0.0225 µM (active)
Cc1cc(OP2(=O)NCc3ccncc3O2)ccc1Cl (configuration not stated) | > 100 µM (inactive) | > 100 µM (inactive) | > 100 µM (inactive) | > 100 µM (inactive) | > 100 µM (inactive) |  | > 100 µM (inactive) |  | > 100 µM (inactive) | > 100 µM (inactive) | > 100 µM (inactive) | > 100 µM (inactive) |  | > 100 µM (inactive) | > 100 µM (inactive) | > 100 µM (inactive) | > 100 µM (inactive) | > 100 µM (inactive) | > 100 µM (inactive) | 
O=C(Nc1ccc2[nH]c(C(=O)N3CC(CCl)c4ccc([N+](=O)[O-])cc43)cc2c1)c1cc2ccccc2o1 (configuration not stated) |  | > 1100 µM (inactive) | > 1100 µM (inactive) | > 1100 µM (inactive) | > 1100 µM (inactive) | > 1100 µM (inactive) | > 1100 µM (inactive) | > 1100 µM (inactive) | > 1100 µM (inactive) | > 1100 µM (inactive) | > 1100 µM (inactive) | 716 µM (inactive) | > 1100 µM (inactive) |  | > 1100 µM (inactive) | > 1100 µM (inactive) | > 1100 µM (inactive) | > 1100 µM (inactive) | > 1100 µM (inactive) | 258 µM (inactive)
O=c1cc(N2CCOCC2)[nH]c(=O)n1-c1cccc(Cl)c1 | > 100 µM (inactive) | > 100 µM (inactive) | > 100 µM (inactive) | > 100 µM (inactive) | > 100 µM (inactive) | > 100 µM (inactive) | > 100 µM (inactive) | > 100 µM (inactive) | > 100 µM (inactive) | > 100 µM (inactive) | > 100 µM (inactive) | > 100 µM (inactive) | > 100 µM (inactive) |  | > 100 µM (inactive) | > 100 µM (inactive) |  | > 100 µM (inactive) | > 100 µM (inactive) | > 100 µM (inactive)
COc1ccc2[nH]cc(C(=O)C(=O)NC34CC5CC(CC(C5)C3)C4)c2c1 | 29.4 µM (inactive) | 43.3 µM (inactive) | > 45.4 µM (inactive) | 39.4 µM (inactive) | > 50.1 µM (inactive) |  | 16.5 µM (inactive) | 21.4 µM (inactive) | 13.9 µM (inactive) | 8.97 µM (inactive) | 35.6 µM (inactive) | 6.9 µM (inactive) | 73.3 µM (inactive) |  | 67.5 µM (inactive) | 23.8 µM (inactive) | > 100 µM (inactive) | 84.7 µM (inactive) | 18.9 µM (inactive) | 36.7 µM (inactive)
CC1CC(=O)Nc2cc(Cl)ccc2N1C(=O)C1CC1 (configuration not stated) | > 100 µM (inactive) | > 100 µM (inactive) | > 100 µM (inactive) | > 100 µM (inactive) | > 100 µM (inactive) | > 100 µM (inactive) | > 100 µM (inactive) | > 100 µM (inactive) | > 100 µM (inactive) | > 100 µM (inactive) | > 100 µM (inactive) | > 100 µM (inactive) | > 100 µM (inactive) |  | > 100 µM (inactive) |  | > 100 µM (inactive) | > 100 µM (inactive) | > 100 µM (inactive) | > 100 µM (inactive)
S=C(/N=c1\sc(Nc2ccc(Cl)cc2)nc2sc3c(c12)CCN(N1CCc2c(sc4nc(Nc5ccc(Cl)cc5)s/c(=N\C(=S)Nc5ccc(Cl)cc5)c24)C1)C3)Nc1ccc(Cl)cc1 | 35.1 µM (inactive) | > 100 µM (inactive) |  | 25.4 µM (inactive) | 61.7 µM (inactive) |  | 36.1 µM (inactive) | > 100 µM (inactive) | 60 µM (inactive) | 42.3 µM (inactive) | 43.1 µM (inactive) | 38.7 µM (inactive) | 27.7 µM (inactive) |  | 43.5 µM (inactive) | 22.4 µM (inactive) | 62.1 µM (inactive) | 17 µM (inactive) | 19.2 µM (inactive) | 96.2 µM (inactive)
CC12CCC(C(Nc3cc(C(F)(F)F)cc(C(F)(F)F)c3)C1=O)C2(C)C (configuration not stated) | > 100 µM (inactive) | > 100 µM (inactive) | > 100 µM (inactive) | > 100 µM (inactive) | > 100 µM (inactive) |  | > 100 µM (inactive) |  | > 100 µM (inactive) | > 100 µM (inactive) | > 100 µM (inactive) | > 100 µM (inactive) | > 100 µM (inactive) | > 100 µM (inactive) | > 100 µM (inactive) | > 100 µM (inactive) | > 100 µM (inactive) |  |  | 
CCCCCCCCCCCCCCCCOP(=O)(O)OP(=O)(O)OCC1OC(n2ccc(N)nc2=O)CC1O (configuration not stated) | > 100 µM (inactive) | > 100 µM (inactive) | > 100 µM (inactive) |  | > 100 µM (inactive) | > 100 µM (inactive) | > 100 µM (inactive) | > 100 µM (inactive) | > 100 µM (inactive) | > 100 µM (inactive) | > 100 µM (inactive) | > 100 µM (inactive) | > 100 µM (inactive) |  | > 100 µM (inactive) | > 100 µM (inactive) | > 100 µM (inactive) | > 100 µM (inactive) | > 100 µM (inactive) | > 100 µM (inactive)
CCOC(=O)C(CC(=O)OC)NC(=O)C(CC(=O)OC)NC(=O)C(CC(=O)OC)NC(=O)C(CC(=O)OC)NC(=O)OCc1ccccc1 (configuration not stated) (Cbz-D(OMe)D(OMe)D(OMe)D(OMe)-OEt; configuration not given here) | > 100 µM (inactive) | > 100 µM (inactive) |  |  | > 100 µM (inactive) | > 100 µM (inactive) | > 100 µM (inactive) | > 100 µM (inactive) | > 100 µM (inactive) |  | > 100 µM (inactive) |  |  | > 100 µM (inactive) | > 100 µM (inactive) | > 100 µM (inactive) | > 100 µM (inactive) | > 100 µM (inactive) | > 100 µM (inactive) | 
